# According to patent US11591319B2, “Small molecule inducers of autophagy” (Board of Regents, The University of Texas System, priority 2018, dated 2023):
# What was measured:
# PARP = PARP cleavage (apoptosis); assay type: cell-based; settings: 10 or 20 μM
# HeLa cells [1] = assay: CellTiter-Glo cytotoxicity assay; assay type: cell-based; settings: 20 μM
# HeLa cells [2] = assay: p62 levels after Beclin 1 or Bcl-2 siRNA knockdown; assay type: cell-based; settings: cells with either Beclin 1 or Bcl-2 knockdown
# From the text: (§1) We assessed whether the induction of autophagy by SW063058 and SW076956 requires Beclin 1 and Bcl-2 using siRNA to knockdown each protein, respectively, in HeLa, cells.
# BH3 domain of Bax/Bcl-2 = BH3 domain of Bax/Bcl-2 (Homo sapiens (Human), UniProt P10415); assay: Bax BH3 peptide/Bcl-2 AlphaLISA; assay type: binding; settings: AlphaLISA with BH3 peptide
# From the text: (§2) To assess selectivity for disruption of binding of the BH3 domain of Beclin 1 to Bcl-2 as compared to that of a pro-apoptotic Bcl-2 family member, we used an AlphaLISA with purified recombinant Bcl-2 and peptides spanning either the BH3 domain (amino acids 105-130) of Beclin 1 or the BH3 domain (amino acids 49-84) of Bax.
# (§3) The Beclin 1 BH3 peptide consists of an N-terminally linked biotin, a YGGGGS linker, and […] (a.a. 105-130) derived from human Beclin 1. Bax BH3 peptide consists of an N-terminally linked biotin, a YGGGGS linker, and 36 amino acids (a.a. 49-84) derived from human Bax. Biotin-6xHis control peptide consists of an N-terminally linked biotin, a YGGGGS linker, and a 6xHis tag at C-terminus.
# (§4) For dose-response AlphaLISA experiments, compounds were serially diluted (2-fold, 7 point) with DMSO and added to BB buffer containing purified recombinant proteins or biotinylated peptides at a final concentration range of 10 μM to 156 nM. Protein or peptide concentrations used in dose-response AlphaLISA experiments were as follows: Beclin1/Bcl-2—300 nM/60 nM; SUMO (internal control for Beclin 1/Bcl-2 AlphaLISA)—20 nM; Beclin 1 BH3/Bcl-2—1000 nM/60 nM; Bax BH3/Bcl-2—100 nM/20 nM; Biotin-6xHis (internal control for BH3/Bcl-2 AlphaLISA)—10
# [3] = molecular target: BH3 domain of Beclin 1/Bcl-2 (Homo sapiens (Human), UniProt P10415); assay: Beclin 1 BH3 peptide/Bcl-2 AlphaLISA; assay type: binding; settings: AlphaLISA with BH3 peptide
# From the text: as §2, §3, §4
# [4] = molecular target: Bim/Myc-Bcl-2 interaction (Homo sapiens (Human), UniProt P10415); assay: Co-immunoprecipitation of Bim with Myc-Bcl-2 in HeLa cells; assay type: cell-based; settings: 12 h treatment
# From the text: For the two compounds for which we had sufficient supply for large-scale tissue culture experiments (SW063058 and SW076956), we examined their effects on Beclin 1, Bax, and Bim co-immunoprecipitation with Bcl-2.
# [5] = tested on: HeLa cells that overexpress Bcl-2; assay: CellTiter-Glo cell death in Bcl-2 overexpressing cells; assay type: cell-based
# [6] = molecular target: T1, Beclin 1/Bcl-2 interaction (Homo sapiens (Human), UniProt P10415); assay: Beclin 1/Bcl-2 AlphaLISA assay (dose-response); assay type: binding
# From the text: We also developed a high-throughput Beclin 1/Bcl-2 AlphaLISA assay to directly measure the in vitro interaction between Beclin 1 and Bcl-2. AlphaLISA is a bead-based proximity assay that is capable of measuring protein-protein interaction in homogeneous solution.^41 Oxygen singlet molecules are generated by Alpha donor beads upon irradiation at 680 nm and travel to acceptor beads in proximity. […] Thus, a measurable Alpha luminescence signal requires chemical energy transfer between the donor and acceptor beads, and a pair of interacting molecules immobilized on the beads stabilizes bead association to produce measurable Alpha signals.
# We used purified recombinant Beclin 1 and Bcl-2 proteins for AlphaLISA, which were optimized for enhanced solubility and expression. Human Beclin 1 was expressed as a fusion protein with StrepII-SUMO at the N-terminus, and three residues on the aromatic finger of Beclin 1 were mutated (F359D/F360D/W361D) to improve solubility and protein stability.^42 These mutations are in the BARA domain, which is far from the BH3 motif recognized by Bcl-2. A recombinant Bcl-2-binding deficient mutant of Beclin 1 (StrepII-SUMO-Beclin 1^ΔBcl-2BD) was used as a negative control. […] For a normalization control, we included a parallel AlphaLISA assay with purified SUMO protein (with an N-terminal StrepII tag and a C-terminal 6xHis tag). The purpose of a normalization control is to eliminate inner filter (false-positive) hits that reduce luminescence signal by interfering with the AlphaLISA assay in ways that are unrelated to the Beclin 1/Bcl-2 interaction. With the normalization control, the interaction of Beclin 1 and Bcl-2 was measured as follows:
# All AlphaLISA assays were performed in triplicate in a 384-well format with BB buffer (phosphate-buffered saline supplemented with 0.5% BSA and 1 mM DTT). For the Beclin 1/Bcl-2 AlphaLISA, purified StrepII-SUMO-Beclin 1 was incubated with Bcl-2-6xHis proteins at 300 nM and 60 nM, respectively. For internal control AlphaLISA assays, StrepII-SUMO-6xHis protein (internal control) was used at 20 nM. […] Following the initial incubation, Strep-Tactin Alpha donor (AS106D) and anti-6xHis AlphaLISA acceptor beads (AL128M) were added to a final concentration of 40 μg/mL each and incubated at room temperature in the dark for an additional 1 h. All samples were evaluated in triplicate. Alpha signals were measured by an Envision plate reader (Perkin Elmer). Beclin 1/Bcl-2 Alpha signal was normalized with internal control Alpha signal. The normalized value represents the binding activity of Beclin 1 and Bcl-2. The percent activity of a compound was calculated as the following formula: […]
# Protein or peptide concentrations used in dose-response AlphaLISA experiments were as follows: Beclin1/Bcl-2—300 nM/60 nM; SUMO (internal control for Beclin 1/Bcl-2 AlphaLISA)—20 nM; Beclin 1 BH3/Bcl-2—1000 nM/60 nM; Bax BH3/Bcl-2—100 nM/20 nM; Biotin-6xHis (internal control for BH3/Bcl-2 AlphaLISA)—10
# Target sequence in this assay (P10415 1-218): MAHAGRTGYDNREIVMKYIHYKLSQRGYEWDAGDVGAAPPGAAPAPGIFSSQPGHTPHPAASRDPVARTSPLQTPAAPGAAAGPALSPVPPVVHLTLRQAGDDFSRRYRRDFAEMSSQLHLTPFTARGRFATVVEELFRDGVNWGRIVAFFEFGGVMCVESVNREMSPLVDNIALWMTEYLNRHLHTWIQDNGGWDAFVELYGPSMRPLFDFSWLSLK
# [7] = molecular target: T1, Beclin 1/Bcl-2 interaction; assay: Beclin 1/Bcl-2 split-luciferase assay in HeLa cells; assay type: cell-based
# Target sequence in this assay (P10415 whole entry): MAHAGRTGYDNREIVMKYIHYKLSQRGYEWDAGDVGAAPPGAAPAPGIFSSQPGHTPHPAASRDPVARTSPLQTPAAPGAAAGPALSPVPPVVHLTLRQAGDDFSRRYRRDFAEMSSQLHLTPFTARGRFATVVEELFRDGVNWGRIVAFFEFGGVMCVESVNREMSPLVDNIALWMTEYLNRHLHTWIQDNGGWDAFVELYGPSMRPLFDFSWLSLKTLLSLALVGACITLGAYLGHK
# From the text: The split-luciferase approach relies on the reconstitution of two fragments of firefly luciferase, NLuc (amino acids 2-416) and CLuc (amino acids 398-550) expressed with proteins of interest as fusion partners. Upon the binding of interacting partners, two non-functional fragments of the luciferase are brought into proximity, forming an active luciferase protein. To measure Beclin 1/Bcl-2 interaction with the split-luciferase assay, we created HeLa cell lines expressing N-terminal NLuc-tagged Beclin 1 (NLuc-Beclin 1) and CLuc-tagged Bcl-2 (CLuc-Bcl-2) as split-luciferase reporters. […] Renilla luciferase was constitutively expressed as an internal control. The interaction of Beclin 1/Bcl-2 was measured as relative luminescence units (RLU), which was the calculated ratio of split-luciferase and Renilla luciferase signals: […]
# DMSO (neutral control), ABT-737 (positive control), or the library compounds were added to a final concentration of 5 μM and incubated at 37° C. […] After 5 h of incubation, the medium was removed by centrifugation and the activity of Beclin 1/Bcl-2 split-luciferase reporters was measured with Dual-Glo® Luciferase Assay System (Promega). […] Ten microliters of 1× RL buffer (Stop & Glo Reagent) was then added to the sample, the sample was incubated at room temperature for 10 min, and the activity of Renilla luciferase was measured again. […]
# [8] = tested on: HeLa cells stably expressing GFP-LC3; assay: GFP-LC3 puncta quantitation (autophagy); assay type: cell-based
# Experimental: We used well-established assays to assess their autophagic activity,^45 including (i) quantitation of GFP-LC3 puncta (which label autophagosomes) in the presence and absence of the lysosomal inhibitor, bafilomycin A1 (Baf A1), and (ii) western blot analysis of the conversion of LC3-I to the lipidated, autophagosomal-associated protein, LC3-II in the presence and absence of Baf A1. […] Shorter durations of lower concentrations of compounds (10 μM) also produced similar results. […] Thus, these compounds induce autophagic flux in HeLa cells.
# as §1
# Sequence of BH3 domain of Beclin 1/Bcl-2 (P10415 1-218): as the sequence (P10415 1-218) above
# Sequence of BH3 domain of Bax/Bcl-2 (P10415 1-218): as above
# Sequence of Bim/Myc-Bcl-2 interaction (P10415 whole entry): as the sequence (P10415 whole entry) above
Structure (SMILES),IC50 [6],further results
CN(C)CC[C@H](CSc1ccccc1)Nc1ccc(S(=O)(=O)NC(=O)c2ccc(N3CCN(Cc4ccccc4-c4ccc(Cl)cc4)CC3)cc2)cc1[N+](=O)[O-] [ABT-737],,PARP cleavage (PARP): dose-dependent increase in PARP cleavage; cytotoxicity (CellTiter-Glo) (HeLa cells [1]): mild cytotoxicity; p62 levels (HeLa cells [2]): failed to alter p62 levels; binding of the BH3 domain of Bax to Bcl-2 (BH3 domain of Bax/Bcl-2): nanomolar efficiency; binding of the BH3 domain of Beclin 1 to Bcl-2 [3]: nanomolar efficiency; Bim/Myc-Bcl-2 interaction (co-immunoprecipitation) [4]: disrupt co-immunoprecipitation; cell death in HeLa cells that overexpress Bcl-2 [5]: more pronounced dose-dependent increase in cell death; inhibition of Beclin 1/Bcl-2 Alpha signal ([6]; positive control): inhibited in a dose-dependent manner; split-luciferase luminescence activity [7]: inhibited in a dose-dependent manner; GFP-LC3 puncta in Bcl-2 knockdown cells ([8]; Bcl-2 siRNA): no further increase in GFP-LC3 puncta; GFP-LC3 puncta in Beclin 1 knockdown cells ([8]; Beclin 1 siRNA): no further increase in GFP-LC3 puncta
CC(C)(C)OC(=O)Nc1ccc(C2=NN(C(=O)c3ccc(Br)cc3)C(c3ccncc3)C2)cc1 (centres unmarked) [lqr-9-046],3000 nM,
CC(C)(C)OC(=O)Nc1ccc(C2=NN(C(=O)c3ccc(Br)cc3)C(c3ccoc3)C2)cc1 (centres unmarked) [lqr-9-048],4100 nM,
CC(C)(C)OC(=O)Nc1cccc(C2=NN(C(=O)c3ccc(Br)cc3)C(c3ccccc3)C2)c1 (centres unmarked) [lqr-9-055],12000 nM,
CC(C)(C)OC(=O)Nc1ccc(C2=NN(C(=O)OC(C)(C)C)C(c3ccccc3)C2)cc1 (centres unmarked) [lqr-9-056],> 10000 nM,
O=C=Nc1ccc(C2=NN(C(=O)c3ccc(Br)cc3)C(c3ccccc3)C2)cc1 (centres unmarked) [lqr-9-068],> 10000 nM,
CC(C)NC(=O)Nc1ccc(C2=NN(C(=O)c3ccc(Br)cc3)C(c3ccccc3)C2)cc1 (centres unmarked) [lqr-9-076],349 nM,
CC(C)NC(=O)Nc1ccc(C2=NN(C(=O)c3ccc(Br)cc3)C(c3ccccc3)C2)cc1 (centres unmarked) [lqr-9-085],63 nM,
O=C1OCCN1c1ccc(C2=NN(C(=O)c3ccc(Br)cc3)C(c3ccccc3)C2)cc1 (centres unmarked) [lqr-9-088],5140 nM,
CC(C)(C)NC(=O)Nc1ccc(C2=NN(C(=O)c3ccc(Br)cc3)C(c3ccccc3)C2)cc1 (centres unmarked) [lqr-9-118],9100 nM,
CNC(=O)Nc1ccc(C2=NN(C(=O)c3ccc(Br)cc3)C(c3ccccc3)C2)cc1 (centres unmarked) [lqr-9-121],5520 nM,
CC(C)COC(=O)Nc1ccc(C2=NN(C(=O)c3ccc(Br)cc3)C(c3ccccc3)C2)cc1 (centres unmarked) [lqr-9-155],184 nM,
C=CCOC(=O)Nc1ccc(C2=NN(C(=O)c3ccc(Br)cc3)C(c3ccccc3)C2)cc1 (centres unmarked) [lqr-9-156],< 156 nM,
CCOC(=O)Nc1ccc(C2=NN(C(=O)c3ccc(Br)cc3)C(c3ccccc3)C2)cc1 (centres unmarked) [lqr-9-157],< 156 nM,
CN(C)C(=O)Nc1ccc(C2=NN(C(=O)c3ccc(Br)cc3)C(c3ccccc3)C2)cc1 (centres unmarked) [lqr-9-158],2390 nM,
O=C(Nc1ccc(C2=NN(C(=O)c3ccc(Br)cc3)C(c3ccccc3)C2)cc1)OC1CC1 (centres unmarked) [lqr-9-161],< 156 nM,
